PubChem BioAssay (NCI)
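Results reflect a 48-hour exposure of cells in 96-well plates to compound at five concentrations. The concentration for full growth arrest is given as TGI.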

Columns and labels:
Test in all cases: growth of human tumour cells (NCI), 48 h
786-0 renal = test system: 786-0 renal
A498 renal = test system: A498 renal
A549 NSCLC = test system: A549 NSCLC
ACHN renal = test system: ACHN renal
BT-549 breast = test system: BT-549 breast
CAKI-1 renal = test system: CAKI-1 renal
CCRF-CEM leukemia = test system: CCRF-CEM leukemia
COLO 205 colon = test system: COLO 205 colon
DU-145 prostate = test system: DU-145 prostate
EKVX NSCLC = test system: EKVX NSCLC
HCC-2998 colon = test system: HCC-2998 colon
HCT-116 colon = test system: HCT-116 colon
HCT-15 colon = test system: HCT-15 colon
HL-60(TB) leukemia = test system: HL-60(TB) leukemia
HOP-62 NSCLC = test system: HOP-62 NSCLC
HOP-92 NSCLC = test system: HOP-92 NSCLC
HS 578T breast = test system: HS 578T breast
HT29 colon = test system: HT29 colon
IGROV1 ovarian = test system: IGROV1 ovarian
K-562 leukemia = test system: K-562 leukemia
KM12 colon = test system: KM12 colon
LOX IMVI melanoma = test system: LOX IMVI melanoma
M14 melanoma = test system: M14 melanoma
MALME-3M melanoma = test system: MALME-3M melanoma
MCF7 breast = test system: MCF7 breast
MDA-MB-231 breast = test system: MDA-MB-231 breast
MDA-MB-435 = test system: MDA-MB-435
MDA-N = test system: MDA-N
MOLT-4 leukemia = test system: MOLT-4 leukemia
NCI-H226 lung = test system: NCI-H226 lung
NCI-H23 lung = test system: NCI-H23 lung
NCI-H522 lung = test system: NCI-H522 lung
NCI/ADR-RES ovarian = test system: NCI/ADR-RES ovarian
OVCAR-3 ovarian = test system: OVCAR-3 ovarian
OVCAR-4 ovarian = test system: OVCAR-4 ovarian
OVCAR-5 ovarian = test system: OVCAR-5 ovarian
OVCAR-8 ovarian = test system: OVCAR-8 ovarian
PC-3 prostate = test system: PC-3 prostate
RPMI-8226 leukemia = test system: RPMI-8226 leukemia
RXF 393 renal = test system: RXF 393 renal
SF-268 CNS = test system: SF-268 CNS
SF-295 CNS = test system: SF-295 CNS
SF-539 CNS = test system: SF-539 CNS
SK-MEL-2 melanoma = test system: SK-MEL-2 melanoma
SK-MEL-28 melanoma = test system: SK-MEL-28 melanoma
SK-MEL-5 melanoma = test system: SK-MEL-5 melanoma
SK-OV-3 ovarian = test system: SK-OV-3 ovarian
SN12C renal = test system: SN12C renal
SNB-19 CNS = test system: SNB-19 CNS
SR leukemia = test system: SR leukemia
SW-620 colon = test system: SW-620 colon
T-47D breast = test system: T-47D breast
TK-10 renal = test system: TK-10 renal
U251 CNS = test system: U251 CNS
UACC-257 melanoma = test system: UACC-257 melanoma
UACC-62 melanoma = test system: UACC-62 melanoma
UO-31 renal = test system: UO-31 renal
NCI-H460 lung = test system: NCI-H460 lung
SNB-75 CNS = test system: SNB-75 CNS

## CCOC(=O)N1N(c2ccccc2)C(=O)C1(c1ccccc1)c1ccccc1
786-0 renal
  TGI: > 100 µM
A498 renal
  TGI: > 100 µM
A549 NSCLC
  TGI: > 100 µM
ACHN renal
  TGI: > 100 µM
BT-549 breast
  TGI: > 100 µM
CAKI-1 renal
  TGI: > 100 µM
CCRF-CEM leukemia
  TGI: > 100 µM
COLO 205 colon
  TGI: > 100 µM
DU-145 prostate
  TGI: > 100 µM
EKVX NSCLC
  TGI: > 100 µM
HCC-2998 colon
  TGI: > 100 µM
HCT-116 colon
  TGI: > 100 µM
HCT-15 colon
  TGI: > 100 µM
HL-60(TB) leukemia
  TGI: > 100 µM
HOP-62 NSCLC
  TGI: 46 µM
HOP-92 NSCLC
  TGI: > 100 µM
HS 578T breast
  TGI: > 100 µM
HT29 colon
  TGI: > 100 µM
IGROV1 ovarian
  TGI: > 100 µM
K-562 leukemia
  TGI: > 100 µM
KM12 colon
  TGI: > 100 µM
LOX IMVI melanoma
  TGI: > 100 µM
M14 melanoma
  TGI: > 100 µM
MALME-3M melanoma
  TGI: > 100 µM
MCF7 breast
  TGI: > 100 µM
MDA-MB-231 breast
  TGI: > 100 µM
MDA-MB-435
  TGI: > 100 µM
MDA-N
  TGI: > 100 µM
MOLT-4 leukemia
  TGI: > 100 µM
NCI-H226 lung
  TGI: > 100 µM
NCI-H23 lung
  TGI: > 100 µM
NCI-H522 lung
  TGI: > 100 µM
NCI/ADR-RES ovarian
  TGI: > 100 µM
OVCAR-3 ovarian
  TGI: > 100 µM
OVCAR-4 ovarian
  TGI: > 100 µM
OVCAR-5 ovarian
  TGI: > 100 µM
OVCAR-8 ovarian
  TGI: > 100 µM
PC-3 prostate
  TGI: > 100 µM
RPMI-8226 leukemia
  TGI: 83.5 µM
RXF 393 renal
  TGI: > 100 µM
SF-268 CNS
  TGI: > 100 µM
SF-295 CNS
  TGI: > 100 µM
SF-539 CNS
  TGI: > 100 µM
SK-MEL-2 melanoma
  TGI: 70.5 µM
SK-MEL-28 melanoma
  TGI: > 100 µM
SK-MEL-5 melanoma
  TGI: > 100 µM
SK-OV-3 ovarian
  TGI: > 100 µM
SN12C renal
  TGI: > 100 µM
SNB-19 CNS
  TGI: > 100 µM
SR leukemia
  TGI: > 100 µM
SW-620 colon
  TGI: > 100 µM
T-47D breast
  TGI: > 100 µM
TK-10 renal
  TGI: > 100 µM
U251 CNS
  TGI: > 100 µM
UACC-257 melanoma
  TGI: > 100 µM
UACC-62 melanoma
  TGI: > 100 µM
UO-31 renal
  TGI: > 100 µM

## Nc1ccc(OCCCc2c(-c3ccccc3)nc(N)[nH]c2=O)cc1
786-0 renal
  TGI: > 100 µM
A498 renal
  TGI: > 100 µM
ACHN renal
  TGI: > 100 µM
BT-549 breast
  TGI: > 100 µM
CAKI-1 renal
  TGI: > 100 µM
CCRF-CEM leukemia
  TGI: > 100 µM
COLO 205 colon
  TGI: > 100 µM
DU-145 prostate
  TGI: > 100 µM
EKVX NSCLC
  TGI: > 100 µM
HCC-2998 colon
  TGI: > 100 µM
HCT-116 colon
  TGI: > 100 µM
HCT-15 colon
  TGI: > 100 µM
HL-60(TB) leukemia
  TGI: > 100 µM
HOP-62 NSCLC
  TGI: > 100 µM
HS 578T breast
  TGI: > 100 µM
HT29 colon
  TGI: > 100 µM
IGROV1 ovarian
  TGI: > 100 µM
K-562 leukemia
  TGI: > 100 µM
KM12 colon
  TGI: > 100 µM
LOX IMVI melanoma
  TGI: > 100 µM
M14 melanoma
  TGI: > 100 µM
MALME-3M melanoma
  TGI: > 100 µM
MCF7 breast
  TGI: > 100 µM
MDA-MB-231 breast
  TGI: > 100 µM
MDA-MB-435
  TGI: > 100 µM
MDA-N
  TGI: > 100 µM
MOLT-4 leukemia
  TGI: > 100 µM
NCI-H226 lung
  TGI: > 100 µM
NCI-H23 lung
  TGI: > 100 µM
NCI-H460 lung
  TGI: > 100 µM
NCI-H522 lung
  TGI: > 100 µM
NCI/ADR-RES ovarian
  TGI: > 100 µM
OVCAR-3 ovarian
  TGI: > 100 µM
OVCAR-4 ovarian
  TGI: > 100 µM
OVCAR-5 ovarian
  TGI: > 100 µM
OVCAR-8 ovarian
  TGI: > 100 µM
PC-3 prostate
  TGI: > 100 µM
RPMI-8226 leukemia
  TGI: > 100 µM
RXF 393 renal
  TGI: > 100 µM
SF-268 CNS
  TGI: > 100 µM
SF-295 CNS
  TGI: > 100 µM
SF-539 CNS
  TGI: > 100 µM
SK-MEL-28 melanoma
  TGI: > 100 µM
SK-MEL-5 melanoma
  TGI: > 100 µM
SK-OV-3 ovarian
  TGI: > 100 µM
SN12C renal
  TGI: > 100 µM
SNB-19 CNS
  TGI: > 100 µM
SNB-75 CNS
  TGI: > 100 µM
SR leukemia
  TGI: > 100 µM
SW-620 colon
  TGI: > 100 µM
T-47D breast
  TGI: 81.2 µM
U251 CNS
  TGI: > 100 µM
UACC-257 melanoma
  TGI: > 100 µM
UACC-62 melanoma
  TGI: 43 µM
UO-31 renal
  TGI: > 100 µM
